Measured values reported in ChEMBL document CHEMBL1201861, “Genomics of Drug Sensitity in Cancer screening data, Wellcome Trust Sanger Institute”.

What was measured:
Assay in all cases: cells
Conditions in all cases: Homo sapiens
[1] = test system: D-263MG; format: functional, cell-based
Description: SANGER: Inhibition of human D-263MG cell growth in a cell viability assay.

[2] = test system: D283 Med; format: functional, cell-based
Description: SANGER: Inhibition of human D-283MED cell growth in a cell viability assay.

[3] = test system: DSH1; format: functional, cell-based;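 also: growth inhibition of human DSH1 cells, measured with a cell viability readout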
Description: SANGER: Inhibition of human DSH1 cell growth in a cell viability assay.

[4] = test system: EM-2; format: functional, cell-based;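 also: growth inhibition of EM-2 cells, read out with a cell viability assay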
Description: SANGER: Inhibition of human EM-2 cell growth in a cell viability assay.

[5] = test system: ES3; format: functional, cell-based;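 also: growth inhibition of ES3 cells, read out with a cell viability assay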
Description: SANGER: Inhibition of human ES3 cell growth in a cell viability assay.

[6] = test system: ES8; format: functional, cell-based;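 also: growth inhibition of human ES8 cells, read out with a cell viability assay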
Description: SANGER: Inhibition of human ES8 cell growth in a cell viability assay.

[7] = test system: EW-11; format: functional, cell-based;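 also: growth inhibition of human EW-11 cells, measured with a cell viability assay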
Description: SANGER: Inhibition of human EW-11 cell growth in a cell viability assay.

[8] = test system: GCIY; format: functional, cell-based;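 also: growth inhibition of the human GCIY cell line, read out by a cell viability assay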
Description: SANGER: Inhibition of human GCIY cell growth in a cell viability assay.

[9] = test system: GOTO; format: functional, cell-based;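 also: growth inhibition of GOTO cells, read out by a cell viability assay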
Description: SANGER: Inhibition of human GOTO cell growth in a cell viability assay.

[10] = test system: GR-ST; format: functional, cell-based
Description: SANGER: Inhibition of human GR-ST cell growth in a cell viability assay.

[11] = test system: GT3TKB; format: functional, cell-based;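 also: growth inhibition of the cell line, read out with a cell viability assay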
Description: SANGER: Inhibition of human GT3TKB cell growth in a cell viability assay.

[12] = test system: HCE-4; format: functional, cell-based;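 also: cell viability assay measuring inhibition of growth in the human HCE-4 cell line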
Description: SANGER: Inhibition of human HCE-4 cell growth in a cell viability assay.

[13] = test system: HCE-T; format: functional, cell-based;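 also: cell viability assay read-out, reporting inhibition of HCE-T cell growth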
Description: SANGER: Inhibition of human HCE-T cell growth in a cell viability assay.

[14] = test system: HEL; format: functional, cell-based;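 also: growth inhibition of HEL cells, read out with a cell viability assay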
Description: SANGER: Inhibition of human HEL cell growth in a cell viability assay.

[15] = test system: HOP-62; format: functional, cell-based;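 also: cell growth inhibition determined with a viability assay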
Description: SANGER: Inhibition of human HOP-62 cell growth in a cell viability assay.

[16] = test system: IST-MES1; format: functional, cell-based;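 also: growth inhibition of IST-MES1 cells, measured with a cell viability assay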
Description: SANGER: Inhibition of human IST-MES1 cell growth in a cell viability assay.

[17] = test system: J-RT3-T3-5; format: functional, cell-based;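 also: cell viability assay measuring growth inhibition of human J-RT3-T3-5 cells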
Description: SANGER: Inhibition of human J-RT3-T3-5 cell growth in a cell viability assay.

[18] = test system: K5; format: functional, cell-based
Description: SANGER: Inhibition of human K5 cell growth in a cell viability assay.

[19] = test system: KALS-1; format: functional, cell-based;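 also: growth inhibition of KALS-1 cells, determined with a cell viability assay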
Description: SANGER: Inhibition of human KALS-1 cell growth in a cell viability assay.

[20] = test system: KE-37; format: functional, cell-based;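 also: growth inhibition of KE-37 cells, read out with a cell viability assay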
Description: SANGER: Inhibition of human KE-37 cell growth in a cell viability assay.

[21] = test system: KNS-42; format: functional, cell-based;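 also: growth inhibition of KNS-42 cells, read out with a cell viability assay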
Description: SANGER: Inhibition of human KNS-42 cell growth in a cell viability assay.

[22] = test system: KNS-81-FD; format: functional, cell-based;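 also: growth inhibition of KNS-81-FD cells, read out with a cell viability assay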
Description: SANGER: Inhibition of human KNS-81-FD cell growth in a cell viability assay.

[23] = test system: KS-1; format: functional, cell-based;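 also: growth inhibition of KS-1 cells, read out with a cell viability assay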
Description: SANGER: Inhibition of human KS-1 cell growth in a cell viability assay.

[24] = test system: KURAMOCHI; format: functional, cell-based;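 also: growth inhibition of KURAMOCHI cells, read out with a cell viability assay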
Description: SANGER: Inhibition of human KURAMOCHI cell growth in a cell viability assay.

[25] = test system: LB1047-RCC; format: functional, cell-based;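 also: inhibition of cell growth, determined with a cell viability assay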
Description: SANGER: Inhibition of human LB1047-RCC cell growth in a cell viability assay.

[26] = test system: LB373-MEL-D; format: functional, cell-based;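 also: growth inhibition of the cell line, read out in a cell viability assay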
Description: SANGER: Inhibition of human LB373-MEL-D cell growth in a cell viability assay.

[27] = test system: LNCaP-Clone-FGC; format: functional, cell-based
Description: SANGER: Inhibition of human LNCaP-Clone-FGC cell growth in a cell viability assay.

[28] = test system: LS-123; format: functional, cell-based
Description: SANGER: Inhibition of human LS-123 cell growth in a cell viability assay.

[29] = test system: LS-411N; format: functional, cell-based
[30] = test system: MLMA; format: functional, cell-based;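 also: growth inhibition of MLMA cells (human), determined through a cell viability readout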
Description: SANGER: Inhibition of human MLMA cell growth in a cell viability assay.

[31] = test system: MOLT-4; format: functional, cell-based;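 also: growth inhibition of MOLT-4 cells, determined with a cell viability readout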
Description: SANGER: Inhibition of human MOLT-4 cell growth in a cell viability assay.

[32] = test system: MSTO-211H; format: functional, cell-based
Description: SANGER: Inhibition of human MSTO-211H cell growth in a cell viability assay.

[33] = test system: NB5; format: functional, cell-based;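 also: growth inhibition of NB5 cells, read out as cell viability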
Description: SANGER: Inhibition of human NB5 cell growth in a cell viability assay.

[34] = test system: NCI-H1648; format: functional, cell-based;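 also: cell viability assay measuring inhibition of NCI-H1648 cell growth, from the Sanger screening data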
Description: SANGER: Inhibition of human NCI-H1648 cell growth in a cell viability assay.

[35] = test system: NCI-H1650; format: functional, cell-based;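 also: growth inhibition of human NCI-H1650 cells measured by a cell viability assay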
Description: SANGER: Inhibition of human NCI-H1650 cell growth in a cell viability assay.

[36] = test system: NCI-H23; format: functional, cell-based;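 also: cell viability assay measuring growth inhibition of NCI-H23 cells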
Description: SANGER: Inhibition of human NCI-H23 cell growth in a cell viability assay.

[37] = test system: NEC8; format: functional, cell-based;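 also: growth inhibition of human NEC8 cells, read out by a cell viability assay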
Description: SANGER: Inhibition of human NEC8 cell growth in a cell viability assay.

[38] = test system: NMC-G1; format: functional, cell-based;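 also: growth inhibition of the NMC-G1 cell line, measured with a cell viability read-out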
Description: SANGER: Inhibition of human NMC-G1 cell growth in a cell viability assay.

[39] = test system: NTERA-2-cl-D1; format: functional, cell-based;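 also: inhibition of cell growth, measured with a cell viability assay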
Description: SANGER: Inhibition of human NTERA-S-cl-D1 cell growth in a cell viability assay.

[40] = test system: OMC-1; format: functional, cell-based;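 also: growth inhibition of the OMC-1 cell line, measured by a cell viability assay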
Description: SANGER: Inhibition of human OMC-1 cell growth in a cell viability assay.

[41] = test system: P30-OHK; format: functional, cell-based;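 also: growth inhibition of the P30-OHK cell line, read out with a cell viability assay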
Description: SANGER: Inhibition of human P30-OHK cell growth in a cell viability assay.

[42] = test system: RH-1; format: functional, cell-based;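 also: growth inhibition of human RH-1 cells, read out with a cell viability assay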
Description: SANGER: Inhibition of human RH-1 cell growth in a cell viability assay.

[43] = test system: SCC-15; format: functional, cell-based;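 also: growth inhibition of SCC-15 cells, read out with a cell viability assay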
Description: SANGER: Inhibition of human SCC-15 cell growth in a cell viability assay.

[44] = test system: SH-4; format: functional, cell-based;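 also: growth inhibition of SH-4 cells, read out with a cell viability assay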
Description: SANGER: Inhibition of human SH-4 cell growth in a cell viability assay.

[45] = test system: SHP77; format: functional, cell-based, SHP-77;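 also: growth inhibition of human SHP-77 cells measured by a cell viability assay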
Description: SANGER: Inhibition of human SHP-77 cell growth in a cell viability assay.

[46] = test system: SK-N-DZ; format: functional, cell-based;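 also: growth inhibition of the cancer cell line, read out through a viability assay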
Description: SANGER: Inhibition of human SK-N-DZ cell growth in a cell viability assay.

[47] = test system: SNU-C2B; format: functional, cell-based;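 also: cell viability readout used to measure compound-driven suppression of SNU-C2B cell proliferation, IC50 marking half-maximal growth inhibition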
Description: SANGER: Inhibition of human SNU-C2B cell growth in a cell viability assay.

[48] = test system: 8-MG-BA; format: functional, cell-based;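 also: growth inhibition of 8-MG-BA cells, read out with a cell viability assay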
Description: SANGER: Inhibition of human 8-MG-BA cell growth in a cell viability assay.

[49] = test system: ALL-PO; format: functional, cell-based;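 also: growth inhibition of ALL-PO cells, read out by a cell viability assay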
Description: SANGER: Inhibition of human ALL-PO cell growth in a cell viability assay.

[50] = test system: BB65-RCC; format: functional, cell-based;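 also: growth inhibition of the cell line, measured with a cell viability assay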
Description: SANGER: Inhibition of human BB65-RCC cell growth in a cell viability assay.

[51] = test system: BT-474; format: functional, cell-based
Description: SANGER: Inhibition of human BT-474 cell growth in a cell viability assay.

[52] = test system: C2BBe1; format: functional, cell-based;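 also: growth inhibition of C2BBe1 cells, read out through a viability assay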
Description: SANGER: Inhibition of human C2BBe1 cell growth in a cell viability assay.

[53] = test system: TK-10; format: functional, cell-based;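 also: growth inhibition of TK-10 cells, read out in a cell viability assay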
Description: SANGER: Inhibition of human TK10 cell growth in a cell viability assay.

[54] = test system: U-266; format: functional, cell-based
Description: SANGER: Inhibition of human U-266 cell growth in a cell viability assay.

[55] = test system: CCRF-CEM; format: functional, cell-based;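 also: inhibition of CCRF-CEM cell growth, measured by a cell viability assay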
Description: SANGER: Inhibition of human CCRF-CEM cell growth in a cell viability assay.

[56] = test system: CGTH-W-1; format: functional, cell-based;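 also: growth inhibition of human CGTH-W-1 cells measured by cell viability assay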
Description: SANGER: Inhibition of human CGTH-W-1 cell growth in a cell viability assay.

[57] = test system: COLO-668; format: functional, cell-based
Description: SANGER: Inhibition of human COLO-668 cell growth in a cell viability assay.

[58] = test system: COR-L88; format: functional, cell-based;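 also: growth inhibition of COR-L88 cells, read out with a cell viability assay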
Description: SANGER: Inhibition of human COR-L88 cell growth in a cell viability assay.

[59] = test system: JVM-2; format: functional, cell-based;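 also: growth inhibition of JVM-2 cells determined by a cell viability assay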
Description: SANGER: Inhibition of human JVM-2 cell growth in a cell viability assay.

[60] = test system: KU812 cell line; format: functional, cell-based;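 also: growth inhibition of KU812 cells, read out with a cell viability assay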
Description: SANGER: Inhibition of human KU812 cell growth in a cell viability assay.

[61] = test system: KY821; format: functional, cell-based
Description: SANGER: Inhibition of human KY821 cell growth in a cell viability assay.

[62] = test system: Lu-65; format: functional, cell-based
Description: SANGER: Inhibition of human LU-65 cell growth in a cell viability assay.

[63] = test system: NCI-H720; format: functional, cell-based
Description: SANGER: Inhibition of human NCI-H720 cell growth in a cell viability assay.

[64] = test system: SBC-1; format: functional, cell-based
Description: SANGER: Inhibition of human SBC-1 cell growth in a cell viability assay.

For O=c1cc(N2CCOCC2)oc2c(-c3cccc4c3sc3ccccc34)cccc12, the IC50 [1] was > 2 µM, the IC50 [2] was > 2 µM and the IC50 [3] was > 2 µM. The IC50 [4] was > 2 µM, the IC50 [5] was > 2 µM and the IC50 [6] was > 2 µM. The IC50 [7] was > 2 µM, the IC50 [8] was > 2 µM and the IC50 [9] was > 2 µM. For the same compound, the IC50 [10] was > 2 µM, the IC50 [11] was > 2 µM and the IC50 [12] was > 2 µM. The IC50 [13] was > 2 µM, the IC50 [14] was > 2 µM and the IC50 [15] was > 2 µM. For the same compound, the IC50 [16] was > 2 µM, the IC50 [17] was > 2 µM and the IC50 [18] was > 2 µM. For the same compound, the IC50 [19] was > 2 µM, the IC50 [20] was > 2 µM and the IC50 [21] was > 2 µM. For the same compound, the IC50 [22] was > 2 µM, the IC50 [23] was > 2 µM and the IC50 [24] was > 2 µM. The IC50 [25] was > 2 µM, the IC50 [26] was > 2 µM and the IC50 [27] was > 2 µM. The IC50 [28] was > 2 µM, the IC50 [29] was > 2 µM and the IC50 [30] was > 2 µM. The IC50 [31] was > 2 µM, the IC50 [32] was > 2 µM and the IC50 [33] was > 2 µM. The IC50 [34] was > 2 µM, the IC50 [35] was > 2 µM and the IC50 [36] was > 2 µM. For the same compound, the IC50 [37] was 1.55 µM, the IC50 [38] was > 2 µM and the IC50 [39] was > 2 µM. For the same compound, the IC50 [40] was > 2 µM, the IC50 [41] was > 2 µM and the IC50 [42] was > 2 µM. For the same compound, the IC50 [43] was > 2 µM, the IC50 [44] was > 2 µM and the IC50 [45] was > 2 µM. For the same compound, the IC50 [46] was > 2 µM, the IC50 [47] was > 2 µM and the IC50 [48] was > 2 µM. The IC50 [49] was > 2 µM, the IC50 [50] was > 2 µM and the IC50 [51] was > 2 µM. For the same compound, the IC50 [52] was > 2 µM, the IC50 [53] was > 2 µM and the IC50 [54] was > 2 µM. For the same compound, the IC50 [55] was > 2 µM, the IC50 [56] was > 2 µM and the IC50 [57] was > 2 µM.
With CCCS(=O)(=O)Nc1ccc(F)c(C(=O)c2c[nH]c3ncc(Cl)cc23)c1F [PLX-4720] the IC50 [58] was > 10 µM, the IC50 [1] was > 10 µM and the IC50 [2] was > 10 µM. The IC50 [3] was > 10 µM, the IC50 [4] was > 10 µM and the IC50 [5] was > 10 µM. The IC50 [6] was > 10 µM, the IC50 [7] was > 10 µM and the IC50 [8] was > 10 µM. The IC50 [9] was > 10 µM, the IC50 [10] was > 10 µM and the IC50 [11] was > 10 µM. The IC50 [12] was > 10 µM, the IC50 [13] was > 10 µM and the IC50 [14] was > 10 µM. The IC50 [15] was > 10 µM, the IC50 [16] was > 10 µM and the IC50 [17] was > 10 µM. For the same compound, the IC50 [59] was > 10 µM, the IC50 [18] was 0.761 µM and the IC50 [19] was > 10 µM. The IC50 [20] was > 10 µM, the IC50 [21] was > 10 µM and the IC50 [22] was > 10 µM. For the same compound, the IC50 [23] was > 10 µM, the IC50 [60] was > 10 µM and the IC50 [24] was > 10 µM. For the same compound, the IC50 [61] was 9.05 µM, the IC50 [25] was > 10 µM and the IC50 [26] was > 10 µM. For the same compound, the IC50 [27] was > 10 µM, the IC50 [28] was > 10 µM and the IC50 [29] was > 10 µM. For the same compound, the IC50 [62] was > 10 µM, the IC50 [30] was > 10 µM and the IC50 [31] was > 10 µM. For the same compound, the IC50 [32] was > 10 µM, the IC50 [33] was > 10 µM and the IC50 [34] was > 10 µM. The IC50 [35] was > 10 µM, the IC50 [36] was > 10 µM and the IC50 [63] was > 10 µM. For the same compound, the IC50 [37] was > 10 µM, the IC50 [38] was > 10 µM and the IC50 [39] was > 10 µM. For the same compound, the IC50 [40] was > 10 µM, the IC50 [41] was > 10 µM and the IC50 [42] was > 10 µM. The IC50 [64] was > 10 µM, the IC50 [43] was > 10 µM and the IC50 [44] was 0.414 µM. The IC50 [45] was > 10 µM, the IC50 [46] was > 10 µM and the IC50 [47] was > 10 µM. For the same compound, the IC50 [48] was 6.18 µM, the IC50 [49] was > 10 µM and the IC50 [50] was > 10 µM. The IC50 [51] was > 10 µM, the IC50 [52] was > 10 µM and the IC50 [53] was > 10 µM. For the same compound, the IC50 [54] was > 10 µM, the IC50 [55] was > 10 µM and the IC50 [56] was > 10 µM. The IC50 [57] was > 10 µM.
